IC50 data for 22 compounds are collected here from patent US20240109900A1, “AZABICYCLIC SHP2 INHIBITORS” (IRBM S.P.A., priority 2021, published 2024).

For experiment [1], the system named is ERK phosphorylation in KYSE-520 cells. The experiment can be described thus: Phospho-ERK cellular assay. The settings on record: KYSE-520 cells, 2 h at 37° C., phospho-ERK1/2 (Thr202/Tyr204) TR-FRET, read-out: PERK IC50. It counts as cell-based. In a few lines:
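TR-FRET read-out of ERK1/2 Thr202/Tyr204 phosphorylation was taken after overnight antibody incubation at room temperature. Before that, KYSE-520 cells were treated 2 h at 37 °C with compound dilutions and lysed 30 min. Percent inhibition relative to vehicle and cell-free wells was fitted four-parametrically to give IC50.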

Experiment [2] has as its target SHP-2 enzyme (Met1-Leu525) (Homo sapiens (Human), UniProt Q06124). Description: SHP2 inhibition enzymatic assay. The experiment is classed as biochemical. The settings on record: 0.5 nM SHP-2 activated by 500 nM IRS1 peptide, 75 μM DiFMUP substrate; read-out: SHP2wt-IC50. In a few lines:
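SHP-2 (Met1-Leu525), 0.5 nM, activated with 500 nM IRS1 bis-phosphopeptide, preincubated 30 min with compounds in HEPES pH 7.2 buffer with 5 mM DTT. 75 μM DiFMUP added for 30 min at room temperature, stopped with bpV; fluorescence read. IC50 from four-parameter logistic fit of % inhibition.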

Read-outs that look alike come from different tables or passages of the source. Where only a bound is given, the exact number is not on record here.

Chain of SHP-2 enzyme (Met1-Leu525) (Q06124 1-525): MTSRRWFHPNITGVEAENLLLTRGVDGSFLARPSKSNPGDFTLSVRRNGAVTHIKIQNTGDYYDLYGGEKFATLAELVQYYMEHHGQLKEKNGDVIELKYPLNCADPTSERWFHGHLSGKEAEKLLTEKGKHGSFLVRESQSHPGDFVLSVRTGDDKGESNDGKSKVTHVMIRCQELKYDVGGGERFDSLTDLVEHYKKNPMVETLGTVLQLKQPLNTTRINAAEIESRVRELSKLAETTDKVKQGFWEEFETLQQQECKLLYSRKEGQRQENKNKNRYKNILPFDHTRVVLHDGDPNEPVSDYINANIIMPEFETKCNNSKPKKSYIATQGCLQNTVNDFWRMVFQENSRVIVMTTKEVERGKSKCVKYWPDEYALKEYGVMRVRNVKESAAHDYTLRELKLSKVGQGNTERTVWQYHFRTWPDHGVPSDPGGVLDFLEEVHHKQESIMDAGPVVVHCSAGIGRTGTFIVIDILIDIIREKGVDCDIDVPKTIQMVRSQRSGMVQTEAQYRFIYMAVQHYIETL

Regarding `Cc1cc(C2(CN)C3CCN(c4cnc5c(-c6ccnc(N)c6Cl)n[nH]c5n4)CC32)no1` (centres unmarked) [Example 36, 4-(6-(7-(aminomethyl)-7-(5-methylisoxazol-3-yl)-3-azabicyclo[4.1.0]heptan-3-yl)-1H-pyrazolo[3,4-b]pyrazin-3-yl)-3-chloropyridin-2-amine], the half-maximal inhibitory concentration (IC50) – broadly, the concentration needed to halve the response being measured – in experiment [1] (Homo sapiens, KYSE-520, 2 h) is under 1000 nM; in experiment [2] it was under 500 nM.

As to `Cn1c(=O)oc2cc(-c3n[nH]c4nc(N5CC[C@@H]6[C@H](C5)[C@@]6(CN)c5ccccc5F)cnc34)ccc21` [Example 353, 6-(6-((1S,6R,7R)-7-(aminomethyl)-7-(2-fluorophenyl)-3-azabicyclo[4.1.0]heptan-3-yl)-1H-pyrazolo[3,4-b]pyrazin-3-yl)-3-methylbenzo[d]oxazol-2(3H)-one], the 50% inhibitory concentration (IC50) was under 1000 nM in experiment [1] (Homo sapiens, KYSE-520, 2 h) and under 500 nM in experiment [2].

Consider `NC[C@]1(c2ccccc2F)[C@@H]2CCN(c3cnc4c(-c5ccc(-c6ncco6)cc5Cl)n[nH]c4n3)C[C@@H]21` [Example 264, ((1S,6R,7R)-3-(3-(2-chloro-4-(oxazol-2-yl)phenyl)-1H-pyrazolo[3,4-b]pyrazin-6-yl)-7-(2-fluorophenyl)-3-azabicyclo[4.1.0]heptan-7-yl)methanamine], for which the concentration for half-maximal inhibition (IC50) is under 1000 nM in experiment [1] (Homo sapiens, KYSE-520, 2 h) and under 500 nM in experiment [2].

For `Cn1cc2c(Cl)c(-c3n[nH]c4nc(N5C[C@@H]6[C@H](C5)[C@@]6(CN)c5cnsn5)cnc34)ccc2n1` [Example 490, ((1R,5S,6r)-3-(3-(4-chloro-2-methyl-2H-indazol-5-yl)-1H-pyrazolo[3,4-b]pyrazin-6-yl)-6-(1,2,5-thiadiazol-3-yl)-3-azabicyclo[3.1.0]hexan-6-yl)methanamine], the half-inhibitory concentration (IC50) in experiment [1] (Homo sapiens, KYSE-520, 2 h) was under 1000 nM; in experiment [2] it was under 500 nM.

Turning to `Cn1cc2c(Cl)c(-c3n[nH]c4nc(N5CC[C@@H]6[C@H](C5)[C@@]6(CN)c5cc(F)cc(F)c5)cnc34)ccc2n1` [Example 291, ((1S,6R,7R)-3-(3-(4-chloro-2-methyl-2H-indazol-5-yl)-1H-pyrazolo[3,4-b]pyrazin-6-yl)-7-(3,5-difluorophenyl)-3-azabicyclo[4.1.0]heptan-7-yl)methanamine], the IC50 was under 1000 nM in experiment [1] (Homo sapiens, KYSE-520, 2 h) and under 500 nM in experiment [2].

For the compound `Cc1nc(N)ccc1-c1n[nH]c2nc(N3CC[C@@H]4[C@H](C3)[C@@]4(CN)c3ccccc3F)cnc12` [Example 368, 5-(6-((1S,6R,7R)-7-(aminomethyl)-7-(2-fluorophenyl)-3-azabicyclo[4.1.0]heptan-3-yl)-1H-pyrazolo[3,4-b]pyrazin-3-yl)-6-methylpyridin-2-amine], the concentration for half-maximal inhibition (IC50) was under 1000 nM in experiment [1] (Homo sapiens, KYSE-520, 2 h) and under 500 nM in experiment [2].

Take `NCC1(c2cccc(F)c2)C2CCN(c3nc4[nH]nc(-c5cccc(Cl)c5Cl)c4nc3CO)CC21` (centres unmarked) [Example 55, (6-(7-(aminomethyl)-7-(3-fluorophenyl)-3-azabicyclo[4.1.0]heptan-3-yl)-3-(2,3-dichlorophenyl)-1H-pyrazolo[3,4-b]pyrazin-5-yl)methanol]: the IC50 is under 1000 nM in experiment [1] (Homo sapiens, KYSE-520, 2 h) and under 500 nM in experiment [2].

Consider `Cc1csc([C@@]2(CN)[C@@H]3CCN(c4cnc5c(-c6ccc7nn(C)cc7c6Cl)n[nH]c5n4)C[C@@H]32)n1` [Example 79, ((1S,6R,7S)-3-(3-(4-chloro-2-methyl-2H-indazol-5-yl)-1H-pyrazolo[3,4-b]pyrazin-6-yl)-7-(4-methylthiazol-2-yl)-3-azabicyclo[4.1.0]heptan-7-yl)methanamine], for which the IC50 was under 1000 nM in experiment [1] (Homo sapiens, KYSE-520, 2 h) and under 500 nM in experiment [2].

On to `NC[C@]1(c2ccccc2F)[C@@H]2CCN(c3cnc4c(-c5ccnc(-c6ncco6)c5Cl)n[nH]c4n3)C[C@@H]21` [Example 170, ((1S,6R,7R)-3-(3-(3-chloro-2-(oxazol-2-yl)pyridin-4-yl)-1H-pyrazolo[3,4-b]pyrazin-6-yl)-7-(2-fluorophenyl)-3-azabicyclo[4.1.0]heptan-7-yl)methanamine], for which the half-maximal inhibitory concentration (IC50) is under 1000 nM in experiment [1] (Homo sapiens, KYSE-520, 2 h) and under 500 nM in experiment [2].

For the compound `Cc1cc([C@@]2(CN)[C@@H]3CCN(c4cnc5c(-c6ccnc7ccc(Cl)cc67)n[nH]c5n4)C[C@@H]32)no1` [Example 42, ((1S,6R,7S)-3-(3-(6-chloroquinolin-4-yl)-1H-pyrazolo[3,4-b]pyrazin-6-yl)-7-(5-methylisoxazol-3-yl)-3-azabicyclo[4.1.0]heptan-7-yl)methanamine], the IC50 in experiment [1] (Homo sapiens, KYSE-520, 2 h) lay within 1000 to 5000 nM; in experiment [2], 500 to 3000 nM.

With `NC[C@]1(c2ccccc2F)[C@@H]2CCN(c3cnc4c(-c5ccc(N6CCCC6=O)cc5Cl)n[nH]c4n3)C[C@@H]21` [Example 326, 1-(4-(6-((1S,6R,7R)-7-(aminomethyl)-7-(2-fluorophenyl)-3-azabicyclo[4.1.0]heptan-3-yl)-1H-pyrazolo[3,4-b]pyrazin-3-yl)-3-chlorophenyl)pyrrolidin-2-one], the 50% inhibitory concentration (IC50) in experiment [1] (Homo sapiens, KYSE-520, 2 h) was under 1000 nM; in experiment [2] it was under 500 nM.

On to `Cc1csc([C@@]2(CN)[C@@H]3CN(c4cnc5c(-c6ccc7nn(C8CC8)cc7c6Cl)n[nH]c5n4)C[C@@H]32)n1` [Example 528], for which the IC50 is under 1000 nM in experiment [1] and under 500 nM in experiment [2].

For `NC[C@]1(c2ccccc2F)[C@@H]2CCN(c3cnc4c(-c5ccc(F)c6ncccc56)n[nH]c4n3)C[C@@H]21` [Example 376, ((1S,6R,7R)-7-(2-fluorophenyl)-3-(3-(8-fluoroquinolin-5-yl)-1H-pyrazolo[3,4-b]pyrazin-6-yl)-3-azabicyclo[4.1.0]heptan-7-yl)methanamine], the half-maximal inhibitory concentration (IC50) in experiment [1] (Homo sapiens, KYSE-520, 2 h) was under 1000 nM; in experiment [2], under 500 nM.

On to `NC[C@]1(c2ccccc2F)[C@@H]2CCN(c3cnc4c(-c5ccc(S(N)(=O)=O)cc5Cl)n[nH]c4n3)C[C@@H]21` [Example 346, 4-(6-((1S,6R,7R)-7-(aminomethyl)-7-(2-fluorophenyl)-3-azabicyclo[4.1.0]heptan-3-yl)-1H-pyrazolo[3,4-b]pyrazin-3-yl)-3-chlorobenzenesulfonamide], for which the IC50 in experiment [1] (Homo sapiens, KYSE-520, 2 h) is over 5000 nM; in experiment [2], under 500 nM.

As to `Cc1csc([C@@]2(CN)[C@@H]3CCN(c4cnc5c(-c6cccc(Cl)c6Cl)n[nH]c5n4)C[C@@H]32)n1` [Example 78, ((1S,6R,7S)-3-(3-(2,3-dichlorophenyl)-1H-pyrazolo[3,4-b]pyrazin-6-yl)-7-(4-methylthiazol-2-yl)-3-azabicyclo[4.1.0]heptan-7-yl)methanamine], the IC50 is under 1000 nM in experiment [1] (Homo sapiens, KYSE-520, 2 h) and under 500 nM in experiment [2].

Turning to `COc1ccc2c(-c3n[nH]c4nc(N5CC[C@@H]6[C@H](C5)[C@@]6(CN)c5ccccc5F)cnc34)ccnc2c1` [Example 191, ((1S,6R,7R)-7-(2-fluorophenyl)-3-(3-(7-methoxyquinolin-4-yl)-1H-pyrazolo[3,4-b]pyrazin-6-yl)-3-azabicyclo[4.1.0]heptan-7-yl)methanamine], the 50% inhibitory concentration (IC50) is under 1000 nM in experiment [1] (Homo sapiens, KYSE-520, 2 h) and under 500 nM in experiment [2].

As to `CCn1cc2c(Cl)c(-c3n[nH]c4nc(N5CC[C@@H]6[C@H](C5)[C@@]6(CN)c5ccccc5F)cnc34)ccc2n1` [Example 208, ((1S,6R,7R)-3-(3-(4-chloro-2-ethyl-2H-indazol-5-yl)-1H-pyrazolo[3,4-b]pyrazin-6-yl)-7-(2-fluorophenyl)-3-azabicyclo[4.1.0]heptan-7-yl)methanamine], the IC50 is under 1000 nM in experiment [1] (Homo sapiens, KYSE-520, 2 h) and under 500 nM in experiment [2].

In the case of `NC[C@]1(c2ccccc2F)[C@@H]2CCN(c3cnc4c(-c5cccc6nccn56)n[nH]c4n3)C[C@@H]21` [Example 143, ((1S,6R,7R)-7-(2-fluorophenyl)-3-(3-(imidazo[1,2-a]pyridin-5-yl)-1H-pyrazolo[3,4-b]pyrazin-6-yl)-3-azabicyclo[4.1.0]heptan-7-yl)methanamine], the IC50 in experiment [1] (Homo sapiens, KYSE-520, 2 h) was under 1000 nM; in experiment [2], under 500 nM.

On to `NCC1(c2ccc(F)cc2)C2CCN(c3cnc4c(-c5cccc6cccnc56)n[nH]c4n3)CC21` (centres unmarked) [Example 12, (7-(4-fluorophenyl)-3-(3-(quinolin-8-yl)-1H-pyrazolo[3,4-b]pyrazin-6-yl)-3-azabicyclo[4.1.0]heptan-7-yl)methanamine], for which the half-inhibitory concentration (IC50) in experiment [1] (Homo sapiens, KYSE-520, 2 h) is over 5000 nM; in experiment [2] it was 500 to 3000 nM.

Turning to `Cc1csc([C@@]2(CN)[C@@H]3CN(c4cc(=O)n(-c5cccc(Cl)c5Cl)c(C)n4)C[C@@H]32)n1` [Example 433, 6-((1R,5S,6r)-6-(aminomethyl)-6-(4-methylthiazol-2-yl)-3-azabicyclo[3.1.0]hexan-3-yl)-3-(2,3-dichlorophenyl)-2-methylpyrimidin-4(3H)-one], the concentration for half-maximal inhibition (IC50) in experiment [1] (Homo sapiens, KYSE-520, 2 h) was under 1000 nM; in experiment [2], under 500 nM.

As for `Cc1cc(C2(CN)C3CCN(c4cnc5c(-c6ccc(Cl)c7ncccc67)n[nH]c5n4)CC32)no1` (centres unmarked) [Example 33, (3-(3-(8-chloroquinolin-5-yl)-1H-pyrazolo[3,4-b]pyrazin-6-yl)-7-(5-methylisoxazol-3-yl)-3-azabicyclo[4.1.0]heptan-7-yl)methanamine], the 50% inhibitory concentration (IC50) in experiment [1] (Homo sapiens, KYSE-520, 2 h) was under 1000 nM; in experiment [2] it was under 500 nM.

For the compound `NC[C@]1(c2ccccc2F)[C@@H]2CCN(c3cnc4c(-c5ccc6c(c5)CC(=O)N6)n[nH]c4n3)C[C@@H]21` [Example 187, 5-(6-((1S,6R,7R)-7-(aminomethyl)-7-(2-fluorophenyl)-3-azabicyclo[4.1.0]heptan-3-yl)-1H-pyrazolo[3,4-b]pyrazin-3-yl)indolin-2-one], the IC50 in experiment [1] (Homo sapiens, KYSE-520, 2 h) is under 1000 nM; in experiment [2] it was under 500 nM.
